# Measured values reported in patent US8968715B2, “Drug delivery systems for photodynamic therapy” (The University of British Columbia, priority 2000, dated 2015).
# “Also recorded” adds a separate entry of the source.
# Tests used:
# L1210 cells = assay: Cellular uptake of photosensitizer formulations; assay type: cell-based; conditions: 3 μg/ml, FIG. 1
# Procedure: The protocol for setting up the cell cultures and conditions for the cellular assay essentially followed Richter et al. (Proc. SPIE, 2078: 293-304, September 1993). L1210 cells in DMEM and 10% FBS (single experiment, 3 sets) were incubated with the formulations at a concentration of 3 μg/ml and examined for uptake in the cells over time. Cells were recovered by centrifugation, the pellet briefly rinsed, and the cells lysed by freeze thawing in the presence of 2% Triton X-100®. An equal volume of methanol was added and fluorescence was read at 694 nm (λex 440 nm).
# MRL/lpr mouse = assay: Transcutaneous PDT treatment of arthritis, ankle width; assay type: in vivo; conditions: 0.5 mg/kg i.v.
# Procedure: Arthritis in the MRL/lpr mouse strain was enhanced by giving 2 intradermal injections (thoracic and inguinal sites) with 0.05 ml of complete Freunds adjuvant containing 10 mg/ml heat-inactivated M. tuberculosis. PDT was given on days 0, 10 and 20 following CFA treatment. PDT was carried out as follows; 3 groups of MRL/lpr mice were injected intravenously with B-B3 at 0.5 mg/kg (copolymer or liposomal formulations), after which they were protected from light. The third group was injected with copolymer alone at an equivalent copolymer concentration to that found in the formulation. An hour later, they were exposed to light at 80 J/cm^2 for […] (8 mW/cm^2).
# Ankle width measurements were taken every 5 days prior to PDT treatment.
# [1] = Drug incorporation into 10% w/v Pluronic P123; assay type: physicochemical; conditions: for Drug concentration formulated in 10% P123: 10% P123, non-optimized systems
# Procedure: Using formulation methods described in Example 5, the aim was to incorporate 2 mg/ml of B-B3 into 10% w/v P123. It was shown by this method that the B-B3 can typically be incorporated at ˜1.8 mg/ml drug (based on absorbance readings and a molar extinction coefficient of 30425) 24 h post-hydration. This translates to approximately 10% drug loss. Unincorporated drug undergoes aggregation in aqueous solutions, and is characterized by the appearance of a 730 nm absorbance peak. Although the formulations can be made completely aggregate free by centrifugation or sterile filtration through 0.2 μm filters, this adds another step in the manufacturing process, which can be avoided by increasing the copolymer:drug ratio.
# [2] = pH studies of formulation stability; assay type: physicochemical; conditions: poloxamer formulations
# Excerpt: This necessitates hydration of the solid drug-polymer with a very mild buffer to counteract acidification which occurs upon use of sterile packed distilled water as commonly practiced in clinical settings. Behavior of poloxamers is unaffected by pH, and the use of buffers would be entirely dependent on ionizable groups present on the drug substance.
# [3] = test system: M1 rhabdomyosarcoma tumor cells; assay: Tumor recurrence after PDT in tumor mouse model; assay type: in vivo, DBA/2 mouse
# Procedure: Photosensitizer formulations were prepared in 10% w/v Pluronics as described in Example 4. BPD-MA was formulated in F127. B-ring compounds B-EA6 and B-B3, were prepared in P123 due to insufficient drug loading in F127. Liposomal BPD-MA formulation was Verteporfin™ and B-ring compounds were formulated in the same lipid composition. Where DMSO/plasma preparations were made, the DMSO dissolved drug was added directly to mouse plasma and the drug association with different plasma components was observed.
# In these experiments the tumor model used was the DBA/2 mouse (males) inoculated intradermally with M1 rhabdomyosarcoma tumor cells (M1, ATCC. When tumors reached a diameter of 4-6 mm, the mice (n=10, unless other wise stated) were treated with photodynamic therapy (PDT). PDT involved intravenous injection of the formulated drug in 0.2 mL volume of PBS. This was followed by exposure of the tumor region to laser light (Argon pumped dye laser (5W), 690 nm, 50 J/cm^2) 15 min later. Animals were then monitored for tumor recurrence over a 20 day period post treatment.
# [4] = BPD-MA drug loading and formulation stability in Pluronic copolymers (melt method, absorbance); assay type: physicochemical; conditions: 3 days storage at room temperature
# Procedure: In this experiment the use of copolymers for drug loading capability and formulation stability over a 3 day period was examined using the photosensitizer drug BPD-MA. The criteria for choosing the copolymers were based on the solution and viscosity characteristics described in Example 1. The ‘melt’ method is used for the preparation and screening of the large number of samples and is described as follows. At temperatures above 50° C., poloxamers are in their molten state and serve as excellent solvents for tetrapyrrolic compounds, thus avoiding the need for pre-dissolution of drugs in organic solvents. 5 mg of BPD-MA was dissolved with the aid of vortex mixing and sonication at 55° C. into the polymer ‘melts’ to give a final concentration of 5% to 20% w/v of the respective Pluronic. To each melt sample, 2.5 ml of PBS was added to give a final BPD-MA concentration of 2 mg/ml. Samples were allowed to equilibrate to room temperature before drug loading was determined at time zero (T0). 1 ml of suspension was removed for centrifugation (Microfuge, 14,000 rpm, 30 min), and the rest filtered through 0.2 μm filters (Millipore). The filtrate was diluted 1:100 in PBS and the absorbance at 690±3 nm determined (uv-vis spectrophotometer Beckman DU-6401). This procedure was repeated 72 hours later following storage at room temperature and the absorbance measurement (T72).
# [5] = Deposition of BPD-MA / F127 formulations on lactose crystals: hydration and filtration; assay type: physicochemical
# Procedure: In this experiment the deposition of the photosensitizer BPD-MA with the block copolymer Pluronic® F127 onto the sugar lactose was examined. Formulations containing 5% (w/v) and a 10% (w/v) F127 were tested. 0.5 g lactose and 10 mg BPD-MA were added to two rotary evaporation flasks. A stock solution of […] F127 was prepared in CH2Cl2. 1.25 ml (for 5% w/v) and 2.5 ml (for 10% w/v) F127 stock solution was added to each flask. The final volume in each flask was made up to 5.0 ml with CH2Cl2 and the components mixed to ensure complete dissolution. The solvent was removed by rotary evacuation at 50° C., and the flask left under vacuum for a further 15 min at 23° C. Micro-thin film deposits were scraped from the walls and hydrated in 5 ml water at 50° C. The formulations were filtered twice using 0.2 μm syringe filters (Acrodisc, polysulphone).
# The experimental conditions and components were the same as Example 15 with the exception of the following changes. A stock of 0.2 mg/ml F127 was prepared in ethanol and 0.65 ml (2.5% w/v) and 1.25 ml (5% w/v) of the stock solution was added to two flasks. The final volume was made up to 5.0 ml with ethanol and the contents dissolved with warming. Ethanol was removed by rotary evacuation at 50° C., left under vacuum for 15 min at room. Micro-thin film deposits were scraped from the walls and dissolved in 5 ml water at 50° C. as previously described. […]
compound,measurement,setting,value
C=Cc1c(C)c2cc3nc(cc4[nH]c(cc5nc(cc1[nH]2)C1(C)C5=CC=C(C(=O)O)C1C(=O)OC)c(C)c4CCC(=O)OC)C(CCC(=O)OC)=C3C (stereo not shown) [B-B3],Incubation time of 50% uptake level,L1210 cells; copolymer Pluronic P123 formulation,close to ‘zero’ incubation time
same,Control of joint inflammation (increase in ankle swelling),"MRL/lpr mouse; copolymer formulation, 80 J/cm^2, FIG. 2",highly effective in controlling the inflammation
same,Control of joint inflammation (increase in ankle swelling),"MRL/lpr mouse; liposomal formulation, after day 25",exacerbation of the inflammatory condition
same,Control of joint inflammation (increase in ankle swelling),"MRL/lpr mouse; liposomal formulation, earlier part of the study, FIG. 2, 0.5 mg/kg",improved suppression of the inflammation compared to controls; also recorded: better suppression of the inflammation compared to the controls
same,Drug concentration formulated in 10% P123,[1],approximately 1.8 mg/ml
same,Drug incorporated / retained 24 h post-hydration,[1]; aim 2 mg/ml into 10% w/v P123,~1.8 mg/mL
same,pH dependence of formulation stability,[2],detrimental to formulation stability
same,PDT efficacy in tumor model,[3]; plasma/DMSO preparation,completely ineffective for PDT purposes
C=Cc1c(C)c2cc3nc(cc4[nH]c(cc5nc(cc1[nH]2)C1(C)C5=CC=C(C(=O)OC)C1C(=O)OC)c(C)c4CCC(=O)OCCO)C(CCC(=O)OCCO)=C3C (stereo not shown) [B-EA6],pH dependence of formulation stability,[2],does not display any pH-dependency
benzoporphyrin derivative monoacid ring A [BPD-MA],Stability of BPD-MA formulations in Pluronic,[4],no loss of stability
same,Incubation time at which uptake saturation level is achieved,L1210 cells; liposomal formulation,30 min
same,Incubation time of 50% uptake,L1210 cells; liposomal formulation,approximately 5 min
same,Drug concentration formulated in 10% P123,[1],≤ 4000 µg/mL
same,Filtration through 0.2 μm filter,"[5]; 2.5% and 5% w/v F127 on lactose, ethanol as solvent",no resistance
same,Drug loss on filtration through 0.2 μm filters,"[5]; 5% w/v and 10% w/v F127 on lactose, CH2Cl2 as solvent",no drug loss
same,Percent (%) Mice Tumor Free,"[3]; Liposomal, 1.0 mg/kg, Day 7",100%
same,Percent (%) Mice Tumor Free,"[3]; Liposomal, 1.0 mg/kg, Day 14",100%
same,Percent (%) Mice Tumor Free,"[3]; Liposomal, 1.0 mg/kg, Day 20",30%
same,Percent (%) Mice Tumor Free,"[3]; Pluronic F127, 1.0 mg/kg, Day 7",100%
same,Percent (%) Mice Tumor Free,"[3]; Pluronic F127, 1.0 mg/kg, Day 14",60%
same,Percent (%) Mice Tumor Free,"[3]; Pluronic F127, 1.0 mg/kg, Day 20",60%
same,"Likelihood to remain tumor free, poloxamer formulation compared to liposomal BPD-MA",[3]; end of the 20 day period,twice as likely to remain tumor free
